13 compounds from patent US12448400B2, “KRAS G12D modulating compounds” (priority 2023, dated 2025) can be followed below.

The test system of this assay is GP2D (KRAS G12D) cells. Kind of assay: 2D cell viability assay (CellTiter-Glo). Type of assay: cell-based. As to conditions: 96 h; GP2D cells, 4 days, CellTiter-Glo luminescence; read-out: G12D 2D EC50. As for the experimental part: Example B. 2D Cell Viability Assay
Compounds were tested in a 384-well format for their ability to inhibit the viability of GP2D (KRAS G12D) cells in 2D assays. Compounds were serially diluted (1:3) in DMSO. The LabCyte ECHO Acoustic dispenser system was used to pre-spot assay plates with 200 nL of test molecule per well. 1000 cells/well (40 μL volume per well) in RPMI medium with 10% FBS, and Penicillin-Streptomycin-Glutamine were plated in pre-spotted 384-well plates (Greiner, Catalog #781076) on the BioTEK EL406 liquid dispenser with a 5 μL dispensing cassette (BioTek 7170011). The plates were incubated at 37° C., 5% CO2 for 4 days before addition of CellTiter-Glo (CTG) reagent and measurement of luminescence signal. EC50 values were defined as the compound concentration that causes a 50% decrease in luminescence signal and were calculated using a sigmoidal dose-response model to generate curve fits.
In general terms: ATP-based viability assays read luminescence as a measure of living cells.
The term EC50 denotes the concentration giving half of the maximal effect. `CCc1c(F)ccc2cc(O)cc(-c3c(F)c4c5c(nc(OC[C@@]67CCCN6C[C@H](F)C7)nc5c3F)N3C[C@H]5CC[C@H](N5)[C@H]3CCC4)c12` (atropisomer, axis not shown; (aR)) [Example 77-P, 4-((1S,4R,11R,15aR)-10,12-difluoro-8-(((2R,7aS)-2-fluorotetrahydro-1H-pyrrolizin-7a(5H)-yl)methoxy)-2,3,4,5,13,14,15,15a-octahydro-1H-1,4-epiminoazepino[1′,2′:1,8]azocino[2,3,4-de]quinazolin-11-yl)-5-ethyl-6-fluoronaphthalen-2-ol]: the EC50 came to 0.29 nM.

Consider `C#Cc1c(F)ccc2cc(O)cc(-c3c(F)c4c5c(nc(OC[C@]6(C)CN(C)CC[C@@H]6C(F)F)nc5c3F)N3C[C@H]5CC[C@@H]([C@H]3CCC4)N5Cc3oc(=O)oc3C)c12` (atropisomer, axis not shown; (aR)) [Example 78, 4-(((1S,4R,15aR)-8-(((3S,4S)-4-(difluoromethyl)-1,3-dimethylpiperidin-3-yl)methoxy)-11-((R)-8-ethynyl-7-fluoro-3-hydroxynaphthalen-1-yl)-10,12-difluoro-2,3,4,5,13,14,15,15a-octahydro-1H-1,4-epiminoazepino[1′,2′:1,8]azocino[2,3,4-de]quinazolin-16-yl)methyl)-5-methyl-1,3-dioxol-2-one], for which the EC50 came to 0.08 nM.

As for `Cc1oc(=O)oc1CN1[C@@H]2CC[C@H]1[C@@H]1[C@@H](C)Cc3c(Cl)c(-c4ccc(F)c5sc(N)c(C#N)c45)c(F)c4nc(OC[C@@]56CCCN5C[C@H](F)C6)nc(c34)N1C2` (atropisomer, axis not shown; (aS)) [Example 71, 2-amino-4-((1S,4R,11R,14S,14aS)-12-chloro-10-fluoro-8-(((2R,7aS)-2-fluorotetrahydro-1H-pyrrolizin-7a(5H)-yl)methoxy)-14-methyl-15-((5-methyl-2-oxo-1,3-dioxol-4-yl)methyl)-1,2,3,4,5,13,14,14a-octahydro-1,4-epiminoazepino[1′,2′:1,7]azepino[2,3,4-de]quinazolin-11-yl)-7-fluorobenzo[b]thiophene-3-carbonitrile], the EC50 is 0.41 nM.

As for `C[C@H]1Cc2c(Cl)c(-c3ccc(F)c4sc(N)c(C#N)c34)c(F)c3nc(OC[C@@]45CCCN4C[C@H](F)C5)nc(c23)N2C[C@H]3CC[C@H](N3)[C@H]12` (atropisomer, axis not shown; (aS)) [Example 71-P, 2-amino-4-((1S,4R,11R,14S,14aS)-12-chloro-10-fluoro-8-(((2R,7aS)-2-fluorotetrahydro-1H-pyrrolizin-7a(5H)-yl)methoxy)-14-methyl-1,2,3,4,5,13,14,14a-octahydro-1,4-epiminoazepino[1′,2′:1,7]azepino[2,3,4-de]quinazolin-11-yl)-7-fluorobenzo[b]thiophene-3-carbonitrile], the EC50 was found to be 0.18 nM.

As to `C#Cc1c(F)ccc2cccc(-c3nc4c5c(nc(OC[C@@]67CCCN6C[C@H](F)C7)nc5c3F)N3C[C@H]5CC[C@@H]([C@H]3CCC4)N5Cc3oc(=O)oc3CCCCC)c12` [Example 20, 4-(((6aR,7S,10R)-2-(8-ethynyl-7-fluoronaphthalen-1-yl)-1-fluoro-13-(((2R,7aS)-2-fluorotetrahydro-1H-pyrrolizin-7a(5H)-yl)methoxy)-5,6,6a,7,8,9,10,11-octahydro-4H-3,11a,12,14,15-pentaaza-7,10-methanocyclohepta[4,5]cycloocta[1,2,3-de]naphthalen-15-yl)methyl)-5-pentyl-1,3-dioxol-2-one], the EC50 was determined as 5 nM.

With `C#Cc1c(F)ccc2cccc(-c3nc4c5c(nc(OC[C@@]67CCCN6C[C@H](F)C7)nc5c3F)N3C[C@H]5CC[C@@H]([C@H]3CCC4)N5Cc3oc(=O)oc3CCCCCC)c12` [Example 21, 4-(((6aR,7S,10R)-2-(8-ethynyl-7-fluoronaphthalen-1-yl)-1-fluoro-13-(((2R,7aS)-2-fluorotetrahydro-1H-pyrrolizin-7a(5H)-yl)methoxy)-5,6,6a,7,8,9,10,11-octahydro-4H-3,11a,12,14,15-pentaaza-7,10-methanocyclohepta[4,5]cycloocta[1,2,3-de]naphthalen-15-yl)methyl)-5-hexyl-1,3-dioxol-2-one], the EC50 worked out at 5.2 nM.

With `CCCCc1oc(=O)oc1CN1[C@@H]2CC[C@H]1[C@H]1CCCc3nc(-c4cc(O)cc5ccc(F)c(OC(F)(F)F)c45)c(F)c4nc(OC[C@@]56CCCN5C[C@H](F)C6)nc(c34)N1C2` [Example 22, 4-butyl-5-(((6aR,7S,10R)-1-fluoro-2-(7-fluoro-3-hydroxy-8-(trifluoromethoxy)naphthalen-1-yl)-13-(((2R,7aS)-2-fluorotetrahydro-1H-pyrrolizin-7a(5H)-yl)methoxy)-5,6,6a,7,8,9,10,11-octahydro-4H-3,11a,12,14,15-pentaaza-7,10-methanocyclohepta[4,5]cycloocta[1,2,3-de]naphthalen-15-yl)methyl)-1,3-dioxol-2-one], the EC50 turned out to be 0.85 nM.

Take `CCCCCc1oc(=O)oc1CN1[C@@H]2CC[C@H]1[C@H]1CCCc3nc(-c4cc(O)cc5ccc(F)c(OC(F)(F)F)c45)c(F)c4nc(OC[C@@]56CCCN5C[C@H](F)C6)nc(c34)N1C2` [Example 23, 4-(((6aR,7S,10R)-1-fluoro-2-(7-fluoro-3-hydroxy-8-(trifluoromethoxy)naphthalen-1-yl)-13-(((2R,7aS)-2-fluorotetrahydro-1H-pyrrolizin-7a(5H)-yl)methoxy)-5,6,6a,7,8,9,10,11-octahydro-4H-3,11a,12,14,15-pentaaza-7,10-methanocyclohepta[4,5]cycloocta[1,2,3-de]naphthalen-15-yl)methyl)-5-pentyl-1,3-dioxol-2-one]: the EC50 stood at 0.92 nM.

On to `CCCCCCc1oc(=O)oc1CN1[C@@H]2CC[C@H]1[C@H]1CCCc3nc(-c4cc(O)cc5ccc(F)c(OC(F)(F)F)c45)c(F)c4nc(OC[C@@]56CCCN5C[C@H](F)C6)nc(c34)N1C2` [Example 24, 4-(((6aR,7S,10R)-1-fluoro-2-(7-fluoro-3-hydroxy-8-(trifluoromethoxy)naphthalen-1-yl)-13-(((2R,7aS)-2-fluorotetrahydro-1H-pyrrolizin-7a(5H)-yl)methoxy)-5,6,6a,7,8,9,10,11-octahydro-4H-3,11a,12,14,15-pentaaza-7,10-methanocyclohepta[4,5]cycloocta[1,2,3-de]naphthalen-15-yl)methyl)-5-hexyl-1,3-dioxol-2-one], for which the EC50 was 1.1 nM.

`C#Cc1c(F)ccc2cc(OC(=O)O[C@@H](C)C(C)C)cc(-c3nc4c5c(nc(OC[C@@]67CCCN6C[C@H](F)C7)nc5c3F)N3C[C@H]5CC[C@@H]([C@H]3CCC4)N5Cc3oc(=O)oc3C)c12` [Example 39, 5-ethynyl-6-fluoro-4-((6aR,7S,10R)-1-fluoro-13-(((2R,7aS)-2-fluorotetrahydro-1H-pyrrolizin-7a(5H)-yl)methoxy)-15-((5-methyl-2-oxo-1,3-dioxol-4-yl)methyl)-5,6,6a,7,8,9,10,11-octahydro-4H-3,11a,12,14,15-pentaaza-7,10-methanocyclohepta[4,5]cycloocta[1,2,3-de]naphthalen-2-yl)naphthalen-2-yl ((S)-3-methylbutan-2-yl) carbonate]: the EC50 is 0.26 nM.

On to `C#Cc1c(F)ccc2cc(O)cc(-c3nc4c5c(nc(OC[C@@]67CCCN6C[C@H](F)C7)nc5c3F)N3C[C@H]5CC[C@@H]([C@H]3CCC4)N5Cc3oc(=O)oc3CC)c12` [Example 40, 4-ethyl-5-(((6aR,7S,10R)-2-(8-ethynyl-7-fluoro-3-hydroxynaphthalen-1-yl)-1-fluoro-13-(((2R,7aS)-2-fluorotetrahydro-1H-pyrrolizin-7a(5H)-yl)methoxy)-5,6,6a,7,8,9,10,11-octahydro-4H-3,11a,12,14,15-pentaaza-7,10-methanocyclohepta[4,5]cycloocta[1,2,3-de]naphthalen-15-yl)methyl)-1,3-dioxol-2-one], for which the EC50 was 0.22 nM.

Take `C#Cc1c(F)ccc2cc(O)cc(-c3nc4c5c(nc(OC[C@@]67CCCN6C[C@H](F)C7)nc5c3F)N3C[C@H]5CC[C@@H]([C@H]3CCC4)N5Cc3oc(=O)oc3CCC)c12` [Example 41, 4-(((6aR,7S,10R)-2-(8-ethynyl-7-fluoro-3-hydroxynaphthalen-1-yl)-1-fluoro-13-(((2R,7aS)-2-fluorotetrahydro-1H-pyrrolizin-7a(5H)-yl)methoxy)-5,6,6a,7,8,9,10,11-octahydro-4H-3,11a,12,14,15-pentaaza-7,10-methanocyclohepta[4,5]cycloocta[1,2,3-de]naphthalen-15-yl)methyl)-5-propyl-1,3-dioxol-2-one]: the EC50 was 0.18 nM.

On to `C#Cc1c(F)ccc2cc(OCc3oc(=O)oc3C(C)(C)C)cc(-c3nc4c5c(nc(OC[C@@]67CCCN6C[C@H](F)C7)nc5c3F)N3C[C@H]5CC[C@H](N5)[C@@H]3[C@@H](C)C4)c12` [Example 67, 4-(tert-butyl)-5-(((5-ethynyl-6-fluoro-4-((5S,5aS,6S,9R)-1-fluoro-12-(((2R,7aS)-2-fluorotetrahydro-1H-pyrrolizin-7a(5H)-yl)methoxy)-5-methyl-4,5,5a,6,7,8,9,10-octahydro-3,10a,11,13,14-pentaaza-6,9-methanonaphtho[1,8-ab]heptalen-2-yl)naphthalen-2-yl)oxy)methyl)-1,3-dioxol-2-one], for which the EC50 was 1.3 nM.
